Consider 25 molecules from patent US20170247326A1, “Substituted Pyrrolidine Carboxamide Compounds” (EPIZYME, INC., priority 2014, published 2017).

The structures appear in SMILES notation.

T1 sequence (Q9NRG4 whole entry): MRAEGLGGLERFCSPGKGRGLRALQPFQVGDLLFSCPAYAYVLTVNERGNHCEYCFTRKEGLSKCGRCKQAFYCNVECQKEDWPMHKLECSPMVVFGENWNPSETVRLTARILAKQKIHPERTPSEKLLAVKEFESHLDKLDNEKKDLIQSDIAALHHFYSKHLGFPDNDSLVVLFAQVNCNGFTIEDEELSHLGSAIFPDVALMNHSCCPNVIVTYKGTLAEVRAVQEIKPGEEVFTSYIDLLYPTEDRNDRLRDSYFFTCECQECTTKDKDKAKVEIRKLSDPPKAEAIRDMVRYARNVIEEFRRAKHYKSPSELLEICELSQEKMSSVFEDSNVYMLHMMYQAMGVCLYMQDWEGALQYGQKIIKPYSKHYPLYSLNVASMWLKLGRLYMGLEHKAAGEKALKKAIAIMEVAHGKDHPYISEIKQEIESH

One assay concerns the target T1, SMYD2 (Homo sapiens, UniProt Q9NRG4).
T1 construct: Full length SMYD2 (NP_064582.2) was cloned; His6 (N, cleaved yes); FLAG (N); made in house; host or cells: Sf9 insect cells
The experiment in a line: SMYD2 biochemical assay (3H-SAM, biotinylated peptide substrate, Flashplate). To be noted: Table 1; average of n = 1 to n = 50; read-out: SMYD2 Biochem IC50. An excerpt:
S-adenosylmethionine (SAM), S-adenosylhomocysteine (SAH), bicine, Tween20, dimethylsulfoxide (DMSO), bovine skin gelatin (BSG), and Tris(2-carboxyethyl)phosphine hydrochloride (TCEP) were purchased from Sigma-Aldrich at the highest level of purity possible. ^3H-SAM was purchase from American Radiolabeled Chemicals with a specific activity of 80 Ci/mmol. 384-well streptavidin Flashplates were purchased from PerkinElmer.
Peptide was synthesized with a N-terminal linker-affinity tag motif and a C-terminal amide cap by 21st Century Biochemicals. The peptide was high high-performance liquid chromatography (HPLC) purified to greater than 95% purity and confirmed by liquid chromatography mass spectrometry (LC-MS). The sequence was […](K-Biot)-amide. (SEQ ID NO: 3)
Full length SMYD2 (NP_064582.2) was cloned into a pFastbac-Htb-lic vector with an N-terminal His6 tag and FLAG tag, preceded by a TEV protease cleavage site. The protein was expressed in Sf9 insect cells. Cells were resuspended in lysis buffer (25 mM HEPES-NaOH, pH 7.5, 200 mM NaCl, 5% glycerol, and 5 mM […] and lysed by sonication. The protein was purified by Ni-NTA (Qiagen), followed by TEV cleavage to remove the His6 tag, subtractive Ni-NTA (Qiagen), and gel filtration chromatography using an S200 column (GE Healthcare). Purified protein was stored in 20 mM Tris-HCl, pH 8.0, 100 mM NaCl, and 1 mM TCEP.
General Procedure for SMYD2 Enzyme Assays on Peptide Substrates
The assays were all performed in a buffer consisting of 20 mM Bicine (pH=7.6), 1 mM TCEP, 0.005% Bovine Skin Gelatin, and 0.002% Tween20, prepared on the day of use. Compounds in 100% DMSO (1 ul) were spotted into a polypropylene 384-well V-bottom plates (Greiner) using a Platemate Plus outfitted with a 384-channel head (Thermo Scientific). DMSO (1 ul) was added to Columns 11, 12, 23, 24, rows A-H for the maximum signal control and 1 ul of SAH, a known product and inhibitor of SMYD2, was added to columns 11, 12, 23, 24, rows I-P for the minimum signal control. A cocktail (40 ul) containing the SMYD2 enzyme was added by Multidrop Combi (Thermo-Fisher). The compounds were allowed to incubate with SMYD2 for 30 min at room temperature, then a cocktail (10 ul) containing ^3H-SAM and peptide was added to initiate the reaction (final volume=51 ul). The final concentrations of the components were as follows: SMYD2 was 1.5 nM, ^3H-SAM was 10 nM, and peptide was 60 nM, SAH in the minimum signal control wells was 1000 uM, and the DMSO concentration was 2%. The assays were stopped by the addition of non-radioactive SAM (10 ul) to a final concentration of 600 uM, which dilutes the ^3H-SAM to a level where its incorporation into the peptide substrate is no longer detectable. 50 ul of the reaction in the 384-well polypropylene plate was then transferred to a 384-well Flashplate and the biotinylated peptides were allowed to bind to the streptavidin surface for at least 1 hour before being washed three times with 0.1% Tween20 in a Biotek ELx405 plate washer. The plates were then read in a PerkinElmer TopCount plate reader to measure the quantity of ^3H-labeled peptide bound to the Flashplate surface, measured as disintegrations per minute (dpm) or alternatively, referred to as counts per minute (cpm).
Where dpm=disintegrations per minute, cmpd=signal in assay well, and min and max are the respective minimum and maximum signal controls.
Where top and bottom are the normally allowed to float, but may be fixed at 100 or 0 respectively in a 3-parameter fit. The Hill Coefficient normally allowed to float but may also be fixed at 1 in a 3-parameter fit. I is the compound concentration.
SMYD2 biochemical assay data for representative Compounds of the Disclosure are presented in Tables 1, 3, and 4 in the column titled “SMYD2 Bicohem IC50 (μM).”
A word on the IC50: it is the midpoint of a concentration-inhibition curve. For `C[C@@H]1CN(C2CC2)C[C@@H]1NC(=O)c1ccc2c(c1)OC(F)(F)O2` (racemic) [compound 2, (±)-cis-N-(1-cyclopropyl-4-methylpyrrolidin-3-yl)-2,2-difluorobenzo[d][1,3]dioxole-5-carboxamide], the IC50 is greater than 50 µM.

Regarding `C[C@H]1CN(C2CC2)C[C@H]1NC(=O)c1ccc2[nH]c(=O)oc2c1` (racemic) [compound 14, (±)-cis-N-(1-cyclopropyl-4-methylpyrrolidin-3-yl)-2-oxo-2,3-dihydrobenzo[d]oxazole-6-carboxamide], the IC50 is greater than 50 µM.

Turning to `C[C@H]1CN(C2CC2)C[C@H]1NC(=O)c1cc(O)nn1C` (racemic) [compound 16, (±)-cis-N-(1-cyclopropyl-4-methylpyrrolidin-3-yl)-3-hydroxy-1-methyl-1H-pyrazole-5-carboxamide], the IC50 is greater than 50 µM.

Still in this assay, the particulars now being: Table 3; average of n = 1 to n = 50; read-out: SMYD2 Biochem IC50.
Regarding `CC(C)N1C[C@H](C)[C@H](NC(=O)c2cn(C(C)C)nn2)C1` (racemic) [compound 25, (±)-cis-N-[4-methyl-1-(propan-2-yl)pyrrolidin-3-yl]-1-(propan-2-yl)-1H-1,2,3-triazole-4-carboxamide], the IC50 was 6.34 µM.

As for `CC(C)N1C[C@H](C)[C@H](NC(=O)c2ccc3c(c2)NC(=O)CO3)C1` (single isomer, unassigned) [compound 32, (+)-cis-N-[4-methyl-1-(propan-2-yl)pyrrolidin-3-yl]-3-oxo-3,4-dihydro-2H-1,4-benzoxazine-6-carboxamide], the half-inhibitory concentration (IC50) is greater than 50 µM.

Regarding `CC(C)N1C[C@@H](C)[C@H](NC(=O)c2coc(C3CC3)n2)C1` (racemic) [compound 54, (±)-trans-2-cyclopropyl-N-[4-methyl-1-(propan-2-yl)pyrrolidin-3-yl]-1,3-oxazole-4-carboxamide], the IC50 was greater than 50 µM.

As to `CC(C)N1C[C@@H](C)[C@H](NC(=O)c2cncc(C3CC3)n2)C1` (racemic) [compound 43, (±)-trans-6-cyclopropyl-N-[4-methyl-1-(propan-2-yl)pyrrolidin-3-yl]pyrazine-2-carboxamide], the IC50 was greater than 50 µM.

Take `CC(C)N1C[C@H](C)[C@H](NC(=O)c2cc(C3CC3)ncn2)C1` (racemic) [compound 50, (±)-cis-6-cyclopropyl-N-[4-methyl-1-(propan-2-yl)pyrrolidin-3-yl]pyrimidine-4-carboxamide]: the IC50 was 16.7 µM.

`CC(C)N1C[C@@H](C)[C@@H](NC(=O)c2cc(C3CC3)n(C)n2)C1` (racemic) [compound 89, (±)-cis-5-cyclopropyl-1-methyl-N-[4-methyl-1-(propan-2-yl)pyrrolidin-3-yl]-1H-pyrazole-3-carboxamide]: the IC50 was greater than 50 µM.

For the molecule `CC(C)N1C[C@H](C)[C@H](NC(=O)c2ccc(N3CCCC3)cc2)C1` (racemic) [compound 30, (±)-cis-N-[4-methyl-1-(propan-2-yl)pyrrolidin-3-yl]-4-(pyrrolidin-1-yl)benzamide], the IC50 was greater than 50 µM.

For the molecule `CC(C)N1C[C@H](C)[C@H](NC(=O)c2cncc(C3CC3)c2)C1` (racemic) [compound 90, (±)-cis-5-cyclopropyl-N-[4-methyl-1-(propan-2-yl)pyrrolidin-3-yl]pyridine-3-carboxamide], the IC50 is greater than 50 µM.

For `CC(C)N1C[C@@H](C)[C@H](NC(=O)c2cn(C3CC3)nn2)C1` (racemic) [compound 26, (±)-trans-1-cyclopropyl-N-[4-methyl-1-(propan-2-yl)pyrrolidin-3-yl]-1H-1,2,3-triazole-4-carboxamide], the IC50 is 19.3 µM.

On to `CC(C)N1C[C@H](C)[C@H](NC(=O)c2nnc(C3CC3)s2)C1` (racemic) [compound 41, (±)-cis-5-cyclopropyl-N-[4-methyl-1-(propan-2-yl)pyrrolidin-3-yl]-1,3,4-thiadiazole-2-carboxamide], for which the IC50 came out at 2.68 µM.

As to `CC(C)N1C[C@H](C)[C@H](NC(=O)c2n[nH]c(C3CC3)n2)C1` (racemic) [compound 84, (±)-cis-5-cyclopropyl-N-[4-methyl-1-(propan-2-yl)pyrrolidin-3-yl]-1H-1,2,4-triazole-3-carboxamide], the IC50 worked out at 36.8 µM.

On to `CC(C)N1C[C@H](C)[C@H](NC(=O)c2ncc(C3CC3)cn2)C1` (racemic) [compound 59, (±)-cis-5-cyclopropyl-N-[4-methyl-1-(propan-2-yl)pyrrolidin-3-yl]pyrimidine-2-carboxamide], for which the IC50 was greater than 50 µM.

For `CC(C)N1CC(NC(=O)c2cc(C3CC3)cnn2)CC1C` (stereo not shown) [compound 120, 5-cyclopropyl-N-(1-isopropyl-5-methylpyrrolidin-3-yl)pyridazine-3-carboxamide], the IC50 is 11.5 µM.

`CC(C)N1C[C@H](C)[C@H](NC(=O)c2ncc(C3CC3)[nH]2)C1` (racemic) [compound 79, (±)-cis-5-cyclopropyl-N-[4-methyl-1-(propan-2-yl)pyrrolidin-3-yl]-1H-imidazole-2-carboxamide]: the IC50 turned out to be 1.96 µM.

As for `CC(C)N1C[C@H](C)[C@H](NC(=O)c2cnnc(C3CC3)c2)C1` (racemic) [compound 64, (±)-cis-6-cyclopropyl-N-[4-methyl-1-(propan-2-yl)pyrrolidin-3-yl]pyridazine-4-carboxamide], the IC50 is greater than 50 µM.

Turning to `CC(C)N1C[C@H](C)[C@H](NC(=O)c2nnc(C3CC3)o2)C1` (racemic) [compound 53, (±)-cis-5-cyclopropyl-N-[4-methyl-1-(propan-2-yl)pyrrolidin-3-yl]-1,3,4-oxadiazole-2-carboxamide], the IC50 amounted to 4.64 µM.

`CC(C)N1C[C@H](C)[C@H](NC(=O)c2cc(O)c3c(c2)OCC(=O)N3)C1` (racemic) [compound 85, (±)-cis-5-hydroxy-N-[4-methyl-1-(propan-2-yl)pyrrolidin-3-yl]-3-oxo-3,4-dihydro-2H-1,4-benzoxazine-7-carboxamide]: the IC50 was greater than 50 µM.

Take `CC(C)N1C[C@H](C)[C@H](NC(=O)c2c[nH]c(C3CC3)n2)C1` (racemic) [compound 77, (±)-cis-2-cyclopropyl-N-[4-methyl-1-(propan-2-yl)pyrrolidin-3-yl]-1H-imidazole-4-carboxamide]: the IC50 is greater than 50 µM.

Consider `CC1CN(C(C)C)CC1NC(=O)c1ccn(C(C)C)n1` (racemic) [compound 44, (±)-trans-N-[4-methyl-1-(propan-2-yl)pyrrolidin-3-yl]-1-(propan-2-yl)-1H-pyrazole-3-carboxamide], for which the IC50 was greater than 50 µM.

For `CC(C)N1C[C@@H](C)[C@H](NC(=O)c2ccc(C3CC3)c(=O)[nH]2)C1` (racemic) [compound 57, (±)-trans-5-cyclopropyl-N-[4-methyl-1-(propan-2-yl)pyrrolidin-3-yl]-6-oxo-1,6-dihydropyridine-2-carboxamide], the IC50 is greater than 50 µM.

Still in this assay, the particulars now being: Table 4; average of n = 1 to n = 50; read-out: SMYD2 Biochem IC50.
In the case of `CC(C)N1C[C@H](C)[C@H](NC(=O)c2cn(C3CC3)cn2)C1` (stereo in doubt) [compound 123, rac-1-cyclopropyl-N-((3R,4R)-1-isopropyl-4-methylpyrrolidin-3-yl)-1H-imidazole-4-carboxamide], the IC50 stood at 2.2 µM.

On to `CC(C)N1C[C@@H](N(C)C(=O)c2cc(C3CC3)cnn2)[C@@H](C)C1` (racemic) [compound 130, rac-5-cyclopropyl-N-((3R,4R)-1-isopropyl-4-methylpyrrolidin-3-yl)-N-methylpyridazine-3-carboxamide], for which the IC50 came out at 6.4 µM.
